In patent US20040102361A1, “Pharmaceutical composition for the treatment of pulmonary arterial hypertension” (priority 2002, published 2004):
Where a name gives a salt, the structure may show the parent alone.

Tests used:
[1] = system: patients with severe pulmonary arterial hypertension; assay: Clinical trial AC-052-355: hemodynamic efficacy, change from baseline to week 16; assay type: in vivo; details: change from baseline at week 16
Experimental: (§1) This was a double-blind, randomized, placebo-controlled study to assess the effects of bosentan on hemodynamics, safety and tolerability in patients with severe pulmonary arterial hypertension when combined with the initiation of epoprostenol therapy.
(§2) Study design: The duration of the study was 16 weeks, 2:1 bosentan:placebo randomization. All patients received the starting epoprostenol dose of 2 ng/kg/min for 2 days, then they were randomized to receive either bosentan or placebo. Every 2 weeks thereafter, epoprostenol was increased by 2 ng/kg/min up to the target dose of 14±2 ng/kg/min by week 16. All patients received epoprostenol together with either bosentan or placebo for 16 weeks. Hemodynamic assessments were performed at baseline (prior to start of therapy) and again after 16 weeks of therapy. Safety monitoring was performed throughout the study duration.
Primary endpoint: Percent change from baseline in total pulmonary resistance (TPR) to week 16. The sample size was estimated for an expected mean difference in TPR of 28%.
(§3) Secondary endpoints: Changes from baseline to week 16 in CI (Cardiac Index), PVR (Pulmonary Vascular Resistance), […] (mean pulmonary arterial pressure), and mRAP (mean right atrial pressure); changes from baseline to week 16 in walk distance (6-min walk test), dyspnea fatigue rating, WHO functional class; and safety and tolerability.
(§4) Thirty-three patients entered the study: 11 patients received epoprostenol alone, while 22 patients received bosentan with epoprostenol.
In Table 1 the results are expressed as changes from baseline at week 16. Mean±SD (standard deviation) and median change (in brackets).

[2] = system: patients with severe pulmonary arterial hypertension; assay: Clinical trial AC-052-355: vital signs (systolic blood pressure, heart rate), change from baseline to week 16; details: human, in vivo
Experimental: as §1, §2, §3, §4

[3] = system: patients with severe pulmonary arterial hypertension; assay: Clinical trial AC-052-355: treatment emergent adverse events; assay type: in vivo; details: 16 weeks
Experimental: as §1, §2, §3, §4

Q: Which “CI, % mean change” value ([1]; cardiac index, mean (SD in the next cell)) does the source give for `CCCCC[C@H](O)/C=C/[C@@H]1[C@H]2C/C(=C/CCCC(=O)O)O[C@H]2C[C@H]1O` [Epoprostenol alone, (5Z, 9α, 111α, 13E, 15)-6,9-epoxy-11,15-dihydroxyprosta-5,13-dien-1-oic acid, sodium salt] here?
A: The value was 37.9%.

Q: And the “CI, absolute change” value ([1]; mean (SD in the next cell))?
A: Its value is 0.57 L/min/m^2.

Q: And the “TPR, absolute change” value ([1]; mean (SD in the next cell))?
A: Its value is −386 dyn*sec/cm^5.

Q: What about the “mPAP, absolute change” value ([1]; mean (SD in the next cell)) of the same molecule?
A: Its value is −1.6 mmHg.

Q: What about the “CI, % median change” value ([1]; median (in brackets)) of the same molecule?
A: Its value is “(30.0%)”.

Q: And the “TPR, % median change” value ([1]; median (in brackets))?
A: The value was “(−14.3%)”.

Q: What about the “mRAP, absolute change” value ([1]; mean right atrial pressure, mean (SD in the next cell)) of the same molecule?
A: The value was 0.3 mmHg.

Q: And the “TPR, % mean change” value ([1]; total pulmonary resistance, mean (SD in the next cell))?
A: Its value is −22.6%.

Q: And the “Heart Rate (bpm), median change from baseline to week 16” value [2]?
A: The value was 7.0 bpm.

Q: What about the “Systolic blood pressure (mmHg), change from baseline to week 16” value [2] of the same molecule?
A: Its value is −9.8 ± 10.9%.

Q: What about the “FLUSHING, %” value ([3]; human, in vivo) of the same molecule?
A: The value was 45.5%.

Q: What about the “FLUSHING, No.” value ([3]; human, in vivo) of the same molecule?
A: Its value is 5.

Q: And the “HYPOTENSION, %” value ([3]; human, in vivo)?
A: Its value is 18.2%.

Q: What about the “HYPOTENSION, No.” value ([3]; human, in vivo) of the same molecule?
A: Its value is 2.

Q: What about the “PAIN IN JAW, %” value ([3]; human, in vivo) of the same molecule?
A: Its value is 90.9%.

Q: And the “PAIN IN JAW, No.” value ([3]; human, in vivo)?
A: Its value is 10.

Q: And the “HEADACHE, No.” value ([3]; number of patients with the adverse event, 11 patients epoprostenol alone, 22 bosentan with epoprostenol)?
A: Its value is 4.

Q: And the “HEADACHE, %” value ([3]; percent of patients with the adverse event)?
A: Its value is 36.4%.
